Source: ChEMBL document CHEMBL5506024, “Multitarget μ-Opioid Receptor Agonists─Neuropeptide FF Receptor Antagonists Induce Potent Antinociception with Reduced Adverse Side Effects” (J Med Chem, 2024)
pEC50: −log10 of the molar value. Numbered stars: 1 amine (or outer) side, 2 acyl side, 3 side chain; on linkers, the order of the positions; unused ones are H or OH. Square brackets hold non-standard residues; d marks the D form. Peptide text beside a SMILES is read from it. Nva(5-(4-Bn-piperidin-1-yl)) = N[C@@H](CCCN1CCC(Cc2ccccc2)CC1)C(=O)O; X2 = O=C1[C@@H](N[*:1])Cc2ccccc2CN1CCCC(=O)[*:2]; X1 = O=C1[C@@H](N[*:1])Cc2ccccc2CN1CCC(=O)[*:2]; Tic(7-OH) = O=C(O)[C@@H]1Cc2ccc(O)cc2CN1; Dmt = Cc1cc(O)cc(C)c1C[C@H](N)C(=O)O; d(hArg) = N=C(N)NCCCC[C@@H](N)C(=O)O; Nlys = NCCCCNCC(=O)O; βAla = NCCC(=O)O; Sar = CNCC(=O)O

Key:
Type in all cases: functional, cell-based
[1] = molecular target: T1, Mu-type opioid receptor (Homo sapiens, UniProt P35372); test: Agonist activity at human MOP expressed in HEK293 cells coexpressing GloSensor-20F assessed as inhibition of forskolin-induced cAMP accumulation relative to control
T1 sequence (P35372 whole entry): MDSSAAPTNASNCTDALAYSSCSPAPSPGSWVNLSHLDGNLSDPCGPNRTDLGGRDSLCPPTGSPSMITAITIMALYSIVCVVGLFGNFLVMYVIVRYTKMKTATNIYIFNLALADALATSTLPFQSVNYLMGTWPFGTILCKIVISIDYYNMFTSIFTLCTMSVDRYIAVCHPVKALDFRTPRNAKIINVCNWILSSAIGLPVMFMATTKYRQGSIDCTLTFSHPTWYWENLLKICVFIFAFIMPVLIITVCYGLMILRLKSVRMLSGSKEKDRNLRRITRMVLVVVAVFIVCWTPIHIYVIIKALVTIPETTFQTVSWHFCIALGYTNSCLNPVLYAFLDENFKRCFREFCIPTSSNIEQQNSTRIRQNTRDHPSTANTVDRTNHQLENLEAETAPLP

[2] = molecular target: T1, Mu-type opioid receptor; test: Agonist activity at human Rluc8-tagged MOP expressed in HEK293 cells coexpressing eYFP-tagged beta-arrestin-2 assessed as beta-arrestin-2 recruitment incubated for 5 mins by luminometer analysis relative to control
[3] = molecular target: T1, Mu-type opioid receptor; test: Agonist activity at human Rluc8-tagged MOP expressed in HEK293 cells coexpressing eYFP-tagged beta-arrestin-2 assessed as beta-arrestin-2 recruitment incubated for 5 mins by luminometer analysis; details: for pEC50: read-out: EC50; for EC50: hek293
[4] = molecular target: T1, Mu-type opioid receptor; test: Agonist activity at human MOP expressed in HEK293 cells coexpressing GloSensor-20F assessed as inhibition of forskolin-induced cAMP accumulation

Compound | Emax ([1]; filed as agonist) [%] | Emax ([2]; filed as agonist) [%] | pEC50 [3] | also measured
Cc1cc(O)cc(C)c1C[C@H](N)C(=O)N[C@H](CCCNC(=N)N)C(=O)N[C@H]1Cc2ccccc2CN(CCC(=O)N[C@@H](CCCN2CCC(Cc3ccccc3)CC2)C(=O)N[C@@H](Cc2ccccc2)C(=O)NCCC(N)=O)C1=O (H-[Dmt][dR][X1][Nva(5-(4-Bn-piperidin-1-yl))]F[βAla]-NH2) | 95 | – | – | Emax [2]: 31%
Cc1cc(O)cc(C)c1C[C@H](N)C(=O)N[C@H](CCCNC(=N)N)C(=O)N[C@H]1Cc2ccccc2CN(CCC(=O)N[C@@H](CCCN2CCC(Cc3ccccc3)CC2)C(=O)N[C@H](C(N)=O)C(C)C)C1=O (H-[Dmt][dR][X1][Nva(5-(4-Bn-piperidin-1-yl))]V-NH2) | 124 | 52 | – | –
Cc1cc(O)cc(C)c1C[C@H](N)C(=O)N[C@H](CCCNC(=N)N)C(=O)N[C@H]1Cc2ccccc2CN(CCCC(=O)N[C@@H](CCCN2CCC(Cc3ccccc3)CC2)C(=O)N[C@@H](Cc2ccccc2)C(N)=O)C1=O (H-[Dmt][dR][X2][Nva(5-(4-Bn-piperidin-1-yl))]F-NH2) | 108 | – | – | Emax [2]: 31%
Cc1cc(O)cc(C)c1C[C@H](N)C(=O)N[C@H](CCCNC(=N)N)C(=O)N[C@@H](Cc1ccccc1)C(=O)N(C)[C@@H](C)C(=O)N[C@@H](CCCN1CCC(Cc2ccccc2)CC1)C(=O)N[C@@H](Cc1ccccc1)C(N)=O | 99 | 87 | 7.04 | pEC50 [4]: 7.77
Cc1cc(O)cc(C)c1C[C@H](N)C(=O)N[C@H](CCCNC(=N)N)C(=O)N[C@H](Cc1ccccc1)C(=O)N(C)CCC(=O)N[C@@H](CCCN1CCC(Cc2ccccc2)CC1)C(=O)N[C@@H](Cc1ccccc1)C(N)=O | 65 | – | – | pEC50 ([4]; hek293): 6.74
Cc1cc(O)cc(C)c1C[C@H](N)C(=O)N[C@H](CCCNC(=N)N)C(=O)N[C@@H](Cc1ccccc1)C(=O)NCCC(=O)N[C@@H](CCCN1CCC(Cc2ccccc2)CC1)C(=O)N[C@@H](Cc1ccccc1)C(N)=O (H-[Dmt][dR]F[βAla][Nva(5-(4-Bn-piperidin-1-yl))]F-NH2) | 101 | 53 | – | –
Cc1cc(O)cc(C)c1C[C@H](N)C(=O)N[C@H](CCCNC(=N)N)C(=O)N[C@H]1Cc2ccccc2CN(CCC(=O)N[C@@H](CCCN2CCC(Cc3ccccc3)CC2)C(=O)N[C@@H](Cc2c[nH]c3ccccc23)C(N)=O)C1=O (H-[Dmt][dR][X1][Nva(5-(4-Bn-piperidin-1-yl))]W-NH2) | 81 | 42 | – | –
Cc1cc(O)cc(C)c1C[C@H](N)C(=O)N[C@H](CCCNC(=N)N)C(=O)N[C@@H](Cc1ccccc1)C(=O)N(C)CC(=O)N[C@@H](CCCN1CCC(Cc2ccccc2)CC1)C(=O)N[C@H](C(N)=O)C(C)C (H-[Dmt][dR]F[Sar][Nva(5-(4-Bn-piperidin-1-yl))]V-NH2) | 110 | 116 | 7.23 | –
Cc1cc(O)cc(C)c1C[C@H](N)C(=O)N[C@H](CCCNC(=N)N)C(=O)N[C@H]1Cc2ccccc2CN(CCC(=O)N[C@@H](CCCN2CCC(Cc3ccccc3)CC2)C(=O)N[C@H](Cc2ccccc2)C(N)=O)C1=O | 109 | 59 | – | –
Cc1cc(O)cc(C)c1C[C@H](N)C(=O)N[C@H](CCCCN)C(=O)N[C@H]1Cc2ccccc2CN(CCC(=O)N[C@@H](CCCN2CCC(Cc3ccccc3)CC2)C(=O)N[C@@H](Cc2ccccc2)C(N)=O)C1=O (H-[Dmt][dK][X1][Nva(5-(4-Bn-piperidin-1-yl))]F-NH2) | 67 | – | – | EC50 [3]: Not Active; pEC50 [4]: 7.52
Cc1cc(O)cc(C)c1C[C@H](N)C(=O)N[C@H](CCCNC(=N)N)C(=O)N[C@@H](Cc1ccccc1)C(=O)N(C)CCC(=O)N[C@@H](CCCN1CCC(Cc2ccccc2)CC1)C(=O)N[C@@H](Cc1ccccc1)C(N)=O | – | – | 7.35 | pEC50 [4]: 8.05
Cc1cc(O)cc(C)c1C[C@H](N)C(=O)N[C@H](CCCNC(=N)N)C(=O)N[C@H]1Cc2ccccc2CN(CCC(=O)N[C@@H](CCCN2CCc3ccccc3C2)C(=O)N[C@@H](Cc2ccccc2)C(N)=O)C1=O | 98 | 60 | 7.60 | –
N=C(N)NCCC[C@@H](NC(=O)[C@@H]1Cc2ccc(O)cc2CN1)C(=O)N[C@H]1Cc2ccccc2CN(CCC(=O)N[C@@H](CCCN2CCC(Cc3ccccc3)CC2)C(=O)N[C@@H](Cc2ccccc2)C(N)=O)C1=O (H-[Tic(7-OH)][dR][X1][Nva(5-(4-Bn-piperidin-1-yl))]F-NH2) | 46 | – | 5.87 | Emax [2]: 33%
Cc1cc(O)cc(C)c1C[C@H](N)C(=O)N[C@H](CCCCNC(=N)N)C(=O)N[C@H]1Cc2ccccc2CN(CCC(=O)N[C@@H](CCCN2CCC(Cc3ccccc3)CC2)C(=O)N[C@@H](Cc2ccccc2)C(N)=O)C1=O (H-[Dmt][d(hArg)][X1][Nva(5-(4-Bn-piperidin-1-yl))]F-NH2) | – | – | – | Emax [1]: 39%; EC50 [3]: Not Active; pEC50 [4]: 7.62
Cc1cc(O)cc(C)c1C[C@H](N)C(=O)N1CCC[C@@H]1C(=O)N[C@H]1Cc2ccccc2CN(CC(=O)N[C@@H](CCCN2CCC(Cc3ccccc3)CC2)C(=O)N[C@@H](Cc2ccccc2)C(N)=O)C1=O | 85 | – | 6.79 | Emax [2]: 27%; pEC50 [4]: 7.68
Cc1cc(O)cc(C)c1C[C@H](N)C(=O)N[C@H](CCCNC(=N)N)C(=O)N[C@H]1Cc2ccccc2CN(CCC(=O)N[C@@H](CCCN2CCC(Cc3ccccc3)CC2)C(=O)N[C@@H](Cc2ccc(O)cc2)C(N)=O)C1=O (H-[Dmt][dR][X1][Nva(5-(4-Bn-piperidin-1-yl))]Y-NH2) | 88 | 64 | – | –
Cc1cc(O)cc(C)c1C[C@H](N)C(=O)N[C@H](CCCN1CCC(Cc2ccccc2)CC1)C(=O)N[C@H]1Cc2ccccc2CN(CCC(=O)N[C@@H](CCCN2CCC(Cc3ccccc3)CC2)C(=O)N[C@@H](Cc2ccccc2)C(N)=O)C1=O | – | – | – | Emax [1]: 35%
Cc1cc(O)cc(C)c1C[C@@H](N)C(=O)N[C@H](CCCNC(=N)N)C(=O)N[C@@H](Cc1ccccc1)C(=O)N(C)CCC(=O)N[C@@H](CCCN1CCC(Cc2ccccc2)CC1)C(=O)N[C@@H](Cc1ccccc1)C(N)=O | 110 | 49 | – | –
Cc1cc(O)cc(C)c1C[C@H](N)C(=O)N[C@H](CCCNC(=N)N)C(=O)N[C@H]1Cc2ccccc2CN(CCCC(=O)N[C@@H](CCCN2CCC(Cc3ccccc3)CC2)C(=O)N[C@@H](Cc2c[nH]c3ccccc23)C(N)=O)C1=O (H-[Dmt][dR][X2][Nva(5-(4-Bn-piperidin-1-yl))]W-NH2) | 90 | – | – | Emax [2]: 30%
Cc1cc(O)cc(C)c1C[C@H](N)C(=O)N[C@H](CCCNC(=N)N)C(=O)N[C@H]1Cc2ccccc2CN(CCCC(=O)N[C@@H](CCCN2CCC(Cc3ccccc3)CC2)C(=O)N[C@H](C(N)=O)C(C)C)C1=O (H-[Dmt][dR][X2][Nva(5-(4-Bn-piperidin-1-yl))]V-NH2) | 101 | 53 | – | –
Cc1cc(O)cc(C)c1C[C@H](N)C(=O)N[C@H](CCCNC(=N)N)C(=O)N[C@H]1Cc2ccccc2CN(CC(=O)N[C@@H](CCCN2CCC(Cc3ccccc3)CC2)C(=O)N[C@@H](Cc2ccccc2)C(N)=O)C1=O | 76 | – | 6.15 | Emax [2]: 18%; pEC50 [4]: 7.95
Cc1cc(O)cc(C)c1C[C@H](N)C(=O)N[C@H](CCCNC(=N)N)C(=O)N[C@H]1Cc2c(ccc3ccccc23)CN(CCC(=O)N[C@@H](CCCN2CCC(Cc3ccccc3)CC2)C(=O)N[C@@H](Cc2ccccc2)C(N)=O)C1=O | 111 | 60 | 7.25 | pEC50 [4]: 8.28
Cc1cc(O)cc(C)c1C[C@H](N)C(=O)N(CCCCN)CC(=O)N[C@H]1Cc2ccccc2CN(CCC(=O)N[C@@H](CCCN2CCC(Cc3ccccc3)CC2)C(=O)N[C@@H](Cc2ccccc2)C(N)=O)C1=O (H-[Dmt][Nlys][X1][Nva(5-(4-Bn-piperidin-1-yl))]F-NH2) | – | – | – | Emax [1]: 15%; EC50 [3]: Not Active
Cc1cc(O)cc(C)c1C[C@H](N)C(=O)N[C@H](CCCNC(=N)N)C(=O)N[C@H]1Cc2ccccc2CN(CCC(=O)N[C@H](CCCN2CCC(Cc3ccccc3)CC2)C(=O)N[C@@H](Cc2ccccc2)C(N)=O)C1=O | 95 | 76 | 6.75 | pEC50 [4]: 7.85
Cc1cc(O)cc(C)c1C[C@H](N)C(=O)N[C@H](CCCNC(=N)N)C(=O)N[C@@H](Cc1ccccc1)C(=O)N(C)[C@H](C)C(=O)N[C@@H](CCCN1CCC(Cc2ccccc2)CC1)C(=O)N[C@@H](Cc1ccccc1)C(N)=O | 111 | 83 | 6.81 | –
Cc1cc(O)cc(C)c1C[C@H](N)C(=O)N[C@H](CCCNC(=N)N)C(=O)N[C@H]1Cc2ccccc2CN(CCC(=O)N[C@@H](CCCN2CCC(Cc3ccccc3)CC2)C(=O)N[C@@H](CC(C)C)C(N)=O)C1=O (H-[Dmt][dR][X1][Nva(5-(4-Bn-piperidin-1-yl))]L-NH2) | 70 | – | – | Emax [2]: 38%
Cc1cc(O)cc(C)c1C[C@H](N)C(=O)N[C@H](CCCNC(=N)N)C(=O)N[C@@H](Cc1ccccc1)C(=O)N(C)CC(=O)N[C@@H](CCCN1CCC(Cc2ccccc2)CC1)C(=O)N[C@@H](Cc1ccccc1)C(N)=O (H-[Dmt][dR]F[Sar][Nva(5-(4-Bn-piperidin-1-yl))]F-NH2) | 97 | 96 | 7.28 | –
CC[C@H](C)[C@H](NC(=O)[C@H](CCCN1CCC(Cc2ccccc2)CC1)NC(=O)CCN1Cc2ccccc2C[C@H](NC(=O)[C@@H](CCCNC(=N)N)NC(=O)[C@@H](N)Cc2c(C)cc(O)cc2C)C1=O)C(N)=O (H-[Dmt][dR][X1][Nva(5-(4-Bn-piperidin-1-yl))]I-NH2) | 110 | 49 | – | –
